Measurements as given in patent publication US12435060B2, “Acylamino bridged heterocyclic compound, and composition and application thereof” (BEIJING SCITECH-MQ PHARMACEUTICALS LIMITED, priority 2019, dated 2025).

test system: HT29 cells; experiment: Inhibition of cell necrosis (CCK8 method), induced programmed necrosis of HT29 cells; type: cell-based; settings: Homo sapiens, HT-29; rescue from necrosis induced by TNF-α 20 ng/mL, AT-406 1 μM, Z-VAD-FMK 20 μM; 16-20 hours; CCK-8, OD 450 nm
Method in brief: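 HT29 cells in McCOY's 5A with 10% FBS were pre-treated for 30 min with compound (9 fourfold steps, 25000 to 0.38 nM final, 0.25% DMSO). Necrosis was then induced with TNF-α 20 ng/mL, AT-406 1 μM and Z-VAD-FMK 20 μM for 16-20 h. Viability was read by CCK-8 OD450, normalized between uninduced and induced wells, and IC50 was curve-fitted.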

Compound	IC50
CC(C)(O)CCCOc1ccc(Cl)c(-c2cc(NC(=O)c3nnc(CC4CCCC4)[nH]3)ncn2)c1 [Example 464, 5-(cyclopentylmethyl)-N-(6-(2-chloro-5-((4-hydroxy-4-methylpentyl)oxy)phenyl)pyrimidin-4-yl)-4H-1,2,4-triazole-3-carboxamide]	≤ 100 nM
Cc1ccc(OCCN2CCN(C)CC2)cc1-c1ccnc(NC(=O)c2nnc(Cc3ccccc3)[nH]2)c1 [Example 136, 5-benzyl-N-(4-(2-methyl-5-(2-(4-methylpiperazin-1-yl)ethoxy)phenyl)pyridin-2-yl)-4H-1,2,4-triazole-3-carboxamide]	≤ 100 nM
Cc1ccc(OCCCC2(O)CCCCC2)cc1-c1ccnc(NC(=O)c2nnc(Cc3ccccc3)[nH]2)c1 [Example 164, 5-benzyl-N-(4-(5-(3-(1-hydroxycyclohexyl)propoxy)-2-methylphenyl)pyridin-2-yl)-4H-1,2,4-triazole-3-carboxamide]	≤ 100 nM
COc1ncccc1-c1ccnc(NC(=O)c2nnc(Cc3ccccc3)[nH]2)c1 [Example 21, 5-benzyl-N-(2-methoxy-[3,4′-bipyridin]-2′-yl)-4H-1,2,4-triazole-3-carboxamide]	1000 to 10000 nM
COc1cnc(C)cc1-c1ccnc(NC(=O)c2nnc(Cc3ccccc3)[nH]2)c1 [Example 61, 5-benzyl-N-(5′-methoxy-2′-methyl-[4,4′-bipyridin]-2-yl)-4H-1,2,4-triazole-3-carboxamide]	1000 to 10000 nM
Cc1ccc(OC2COC2)cc1-c1ccnc(NC(=O)c2nnc(Cc3ccccc3)[nH]2)c1 [Example 86, 5-benzyl-N-(4-(2-methyl-5-(oxetan-3-yloxy)phenyl)pyridin-2-yl)-4H-1,2,4-triazole-3-carboxamide]	≤ 100 nM
COc1ccc(Cl)c(-c2cncc(NC(=O)c3nnc(Cc4ccccc4)[nH]3)c2)c1 [Example 31, 5-benzyl-N-(5-(2-chloro-5-methoxyphenyl)pyridin-3-yl)-4H-1,2,4-triazole-3-carboxamide]	> 10000 nM
Cc1ccc(OCCC2CCOCC2)cc1-c1cc(NC(=O)c2nnc(CC3CCCCC3)[nH]2)ncc1Cl [Example 252, N-(5-chloro-4-(2-methyl-5-(2-(tetrahydro-2H-pyran-4-yl)ethoxy)phenyl)pyridin-2-yl)-5-(cyclohexylmethyl)-4H-1,2,4-triazole-3-carboxamide]	≤ 100 nM
Cc1ccc(OCC2CCOCC2)cc1-c1ccnc(NC(=O)c2nnc(Cc3ccccc3)[nH]2)c1 [Example 67, 5-benzyl-N-(4-(2-methyl-5-((tetrahydro-2H-pyran-4-yl)methoxy)phenyl)pyridin-2-yl)-4H-1,2,4-triazole-3-carboxamide]	≤ 100 nM
CCC(O)(CC)CCCOc1ccc(F)c(-c2ccnc(NC(=O)c3nnc(Cc4ccccc4F)[nH]3)c2)c1 [Example 314, N-(4-(5-((4-ethyl-4-hydroxyhexyl)oxy)-2-fluorophenyl)pyridin-2-yl)-5-(2-fluorobenzyl)-4H-1,2,4-triazole-3-carboxamide]	100 to 1000 nM
CC(C)OCCOc1ccc(C(F)(F)F)c(-c2ccnc(NC(=O)c3nnc(CC4CCCC4)[nH]3)c2)c1 [Example 289, 5-(cyclopentylmethyl)-N-(4-(5-(2-isopropoxyethoxy)-2-(trifluoromethyl)phenyl)pyridin-2-yl)-4H-1,2,4-triazole-3-carboxamide]	≤ 100 nM
CCOc1ncc(C)cc1-c1ccnc(NC(=O)c2nnc(Cc3ccccc3)[nH]2)c1 [Example 51, 5-benzyl-N-(2-ethoxy-5-methyl-[3,4′-bipyridin]-2′-yl)-4H-1,2,4-triazole-3-carboxamide]	1000 to 10000 nM
O=C(Nc1cc(-c2cc(OCCC3CCOCC3)ccc2Cl)ncn1)c1nnc(Cc2ccccc2)[nH]1 [Example 470, 5-benzyl-N-(6-(2-chloro-5-(2-(tetrahydro-2H-pyran-4-yl)ethoxy)phenyl)pyrimidin-4-yl)-4H-1,2,4-triazole-3-carboxamide]	≤ 100 nM
COCCN(C)c1ccc(C)c(-c2ccnc(NC(=O)c3nnc(Cc4ccccc4)[nH]3)c2)c1 [Example 55, 5-benzyl-N-(4-(5-((2-methoxyethyl)(methyl)amino)-2-methylphenyl)pyridin-2-yl)-4H-1,2,4-triazole-3-carboxamide]	100 to 1000 nM
O=C(Nc1cc(-c2cc(OCCC3CCOCC3)ccc2Cl)ncn1)c1nnc(CC2CCCCC2)[nH]1 [Example 473, N-(6-(2-chloro-5-(2-(tetrahydro-2H-pyran-4-yl)ethoxy)phenyl)pyrimidin-4-yl)-5-(cyclohexylmethyl)-4H-1,2,4-triazole-3-carboxamide]	≤ 100 nM
O=C(Nc1cc(-c2cc(OCCC3CCOCC3)ccc2F)ccn1)c1nnc(CC2CCCCC2)[nH]1 [Example 317, 5-(cyclohexylmethyl)-N-(4-(2-fluoro-5-(2-(tetrahydro-2H-pyran-4-yl)ethoxy)phenyl)pyridin-2-yl)-4H-1,2,4-triazole-3-carboxamide]	≤ 100 nM

Compound	IC50
Cc1ccc(OCCOC(C)C)cc1-c1ccnc(NC(=O)c2nnc(Cc3ccccc3)[nH]2)c1 [Example 133, 5-benzyl-N-(4-(5-(2-isopropoxyethoxy)-2-methylphenyl)pyridin-2-yl)-4H-1,2,4-triazole-3-carboxamide]	≤ 100 nM
CC(C)(O)COc1ccc(C(F)(F)F)c(-c2ccnc(NC(=O)c3nnc(CC4CCCCC4)[nH]3)c2)c1 [Example 267, 5-(cyclohexylmethyl)-N-(4-(5-(2-hydroxyl-2-methylpropoxy)-2-(trifluoromethyl)phenyl)pyridin-2-yl)-4H-1,2,4-triazole-3-carboxamide]	≤ 100 nM
Cc1ccc(OCCCC(N)=O)cc1-c1ccnc(NC(=O)c2nnc(Cc3ccccc3)[nH]2)c1 [Example 157, N-(4-(5-(4-amino-4-oxobutoxy)-2-methylphenyl)pyridin-2-yl)-5-benzyl-4H-1,2,4-triazole-3-carboxamide]	100 to 1000 nM
CC(C)(O)CCCOc1cc(F)c(Cl)c(-c2ccnc(NC(=O)c3nnc(Cc4ccccc4)[nH]3)c2)c1 [Example 407, 5-benzyl-N-(4-(2-chloro-3-fluoro-5-((4-hydroxy-4-methylpentyl)oxy)phenyl)pyridin-2-yl)-4H-1,2,4-triazole-3-carboxamide]	> 10000 nM
CC(C)(O)CCCCOc1ccc(C(F)(F)F)c(-c2ccnc(NC(=O)c3nnc(Cc4ccccc4F)[nH]3)c2)c1 [Example 269, 5-(2-fluorobenzyl)-N-(4-(5-((5-hydroxyl-5-methylhexyl)oxy)-2-(trifluoromethyl)phenyl)pyridin-2-yl)-4H-1,2,4-triazole-3-carboxamide]	≤ 100 nM
Cc1ccc(CCC(C)(C)O)cc1-c1ccnc(NC(=O)c2nnc(Cc3ccccc3)[nH]2)c1 [Example 482, 5-benzyl-N-(4-(5-(3-hydroxyl-3-methylbutyl)-2-methylphenyl)pyridin-2-yl)-4H-1,2,4-triazole-3-carboxamide]	≤ 100 nM
Cc1cnc(NC(=O)c2nnc(Cc3ccccc3F)[nH]2)cc1-c1cc(OCCCC(C)(C)O)ccc1F [Example 322, N-(4-(2-fluoro-5-((4-hydroxy-4-methylpentyl)oxy)phenyl)-5-methylpyridin-2-yl)-5-(2-fluorobenzyl)-4H-1,2,4-triazole-3-carboxamide]	100 to 1000 nM
CC(C)(O)CCCOc1ccc(Cl)c(-c2ccnc(NC(=O)c3nnc(Cc4ccccc4F)[nH]3)c2)c1 [Example 338, N-(4-(2-chloro-5-((4-hydroxy-4-methylpentyl)oxy)phenyl)pyridin-2-yl)-5-(2-fluorobenzyl)-4H-1,2,4-triazole-3-carboxamide]	≤ 100 nM
Cc1ccc(CCCO)cc1-c1ccnc(NC(=O)c2nnc(Cc3ccccc3)[nH]2)c1 [Example 483, 5-benzyl-N-(4-(5-(3-hydroxylpropyl)-2-methylphenyl)pyridin-2-yl)-4H-1,2,4-triazole-3-carboxamide]	100 to 1000 nM
Cc1ccc(C(N)=O)cc1-c1ccnc(NC(=O)c2nnc(Cc3ccccc3)[nH]2)c1 [Example 158, 5-benzyl-N-(4-(5-carbamoyl-2-methylphenyl)pyridin-2-yl)-4H-1,2,4-triazole-3-carboxamide]	1000 to 10000 nM
Cc1cc(Cc2nnc(C(=O)Nc3cc(-c4cc(OCCCC(C)(C)O)ccc4C)ccn3)[nH]2)ccc1F [Example 208, 5-(4-fluoro-3-methylbenzyl)-N-(4-(5-((4-hydroxy-4-methylpentyl)oxy)-2-methylphenyl)pyridin-2-yl)-4H-1,2,4-triazole-3-carboxamide]	100 to 1000 nM
O=C(Nc1cc(-c2cc(OCC3CCOCC3)ccc2C(F)(F)F)ncn1)c1nnc(CC2CCCC2)[nH]1 [Example 456, 5-(cyclopentylmethyl)-N-(6-(5-((tetrahydro-2H-pyran-4-yl)methoxy)-2-(trifluoromethyl)phenyl)pyrimidin-4-yl)-4H-1,2,4-triazole-3-carboxamide]	≤ 100 nM
Cc1ccc(OCCCC(C)(C)O)cc1-c1ccnc(NC(=O)c2nnc(CC3CCC3)[nH]2)c1 [Example 172, 5-(cyclobutylmethyl)-N-(4-(5-((4-hydroxy-4-methylpentyl)oxy)-2-methylphenyl)pyridin-2-yl)-4H-1,2,4-triazole-3-carboxamide]	≤ 100 nM
O=C(Nc1cc(-c2cccc3c2CCC3)ccn1)c1nnc(Cc2ccccc2)[nH]1 [Example 39, 5-benzyl-N-(4-(2,3-dihydro-1H-inden-4-yl)pyridin-2-yl)-4H-1,2,4-triazole-3-carboxamide]	1000 to 10000 nM
O=C(Nc1cc(-c2cccc3c2OCCO3)ccn1)c1nnc(Cc2ccccc2)[nH]1 [Example 42, 5-benzyl-N-(4-(2,3-dihydrobenzo[b][1,4]dioxin-5-yl)pyridin-2-yl)-4H-1,2,4-triazole-3-carboxamide]	1000 to 10000 nM
O=C(Nc1cc(-c2cc(OCCC3CCOCC3)ccc2C(F)(F)F)ccn1)c1nnc(Cc2ccc(F)cc2)[nH]1 [Example 308, 5-(4-fluorobenzyl)-N-(4-(5-(2-(tetrahydro-2H-pyran-4-yl)ethoxy)-2-(trifluoromethyl)phenyl)pyridin-2-yl)-4H-1,2,4-triazole-3-carboxamide]	≤ 100 nM
